Laboratory results published in patent US10829458B2 (Araxes Pharma LLC, priority 2015, dated 2020).

Biological target: T1, KRAS G12C 1-169, his-tagged protein, GDP-loaded (Homo sapiens, UniProt P01116, G12C)
T1 construct: KRAS G12C 1-169, his-tagged protein, GDP-loaded
Test: Biochemical assay: covalent modification of KRAS G12C measured by mass spectrometry (RapidFire/TOF or Q-Exactive)
Conditions: covalent binding to KRAS G12C
Outline: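 GDP-loaded his-tagged KRAS G12C 1-169 at 2 μM in 20 mM Hepes, 150 mM NaCl, 1 mM MgCl2 incubated at room temperature with compound (10, 30 or 100 μM final, 2% DMSO) for 30 min, 2 h or 24 h, then quenched with formic acid. Intact-protein LC-MS (RapidFire/TOF or Q-Exactive) with deconvolution quantified modified versus unmodified protein.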

For `C=CC(=O)N1CCN(c2ncnc3c(F)c(-c4c(O)cccc4F)c(Cl)cc23)CC1C(F)F` (stereo not shown) [III-19, 1-(4-(6-chloro-8-fluoro-7-(2-fluoro-6-hydroxy-phenyl)quinazolin-4-yl)-2-(difluoro-methyl)piperazin-1-yl)prop-2-en-1-one], the Binding % (compounds of structure (III)) was “+++ (+++ indicates binding activity greater than 90%)”.

For `C=CC(=O)N1CCN(c2nc(OCCN3CCOCC3)nc3c(F)c(-c4c(O)cccc4F)c(Cl)cc23)CC1` (atropisomer, axis not shown) [Example I-28, (R)-1-(4-(6-chloro-8-fluoro-7-(2-fluoro-6-hydroxyphenyl)-2-(2-morpholino-ethoxy)quinazolin-4-yl)piperazin-1-yl)prop-2-en-1-one], the Binding % (compounds of structure (I)) was “+ (+ indicates binding activity up to 50%)”.

For `C=CC(=O)N1CCN(c2nc(N3CC(N4CCN(C)CC4)C3)nc3c(F)c(-c4c(O)cccc4F)c(Cl)cc23)CC1` [Example I-41, 1-(4-(6-chloro-8-fluoro-7-(2-fluoro-6-hydroxyphenyl)-2-(3-(4-methyl-piperazin-1-yl)azetidin-1-yl)quinazolin-4-yl)piperazin-1-yl)prop-2-en-1-one], the Binding % (compounds of structure (I)) was “+++ (+++ indicates binding activity greater than 90%)”.

`C=CC(=O)N1C[C@@H](C)N(c2ncnc3c(F)c(-c4c(C)ccc5[nH]ncc45)c(Cl)cc23)[C@@H](C)C1` [III-40, 1-((3S,5R)-4-(6-chloro-8-fluoro-7-(5-methyl-1H-indazol-4-yl)quinazolin-4-yl)-3,5-dimethyl-piperazin-1-yl)prop-2-en-1-one] was tested, and the Binding % (compounds of structure (III)) was “++ (++ indicates activity from 50% to 90%)”.

`C=CC(=O)N1CCN(c2nc(OCCc3ncccn3)nc3c(F)c(-c4c(O)cccc4F)c(Cl)cc23)CC1` [Example I-140, 1-(4-(6-chloro-8-fluoro-7-(2-fluoro-6-hydroxyphenyl)-2-(2-(pyrimidin-2-yl)ethoxy)quinazolin-4-yl)piperazin-1-yl) prop-2-en-1-one] was tested, and the Binding % (compounds of structure (I)) was “+++ (+++ indicates binding activity greater than 90%)”.

In the case of `C=CC(=O)N1CCN(c2nc(OCCN3CCOCC3)nc3c(F)c(-c4cc(O)cc5ccccc45)c(Cl)cc23)CC1` [Example I-14, 1-(4-(6-chloro-8-fluoro-7-(3-hydroxy-naphthalen-1-yl)-2-(2-morpholino-ethoxy)quinazolin-4-yl)piperazin-1-yl)prop-2-en-1-one], the Binding % (compounds of structure (I)) is reported as “+++ (+++ indicates binding activity greater than 90%)”.

For `C=CC(=O)N1CCN(c2nc(OCCc3ccccn3)nc3c(F)c(-c4c(O)cccc4F)c(Cl)cc23)CC1` (atropisomer, axis not shown) [Example I-102, (R)-1-(4-(6-chloro-8-fluoro-7-(2-fluoro-6-hydroxyphenyl)-2-(2-(pyridin-2-yl)ethoxy)quinazolin-4-yl)piperazin-1-yl) prop-2-en-1-one], the Binding % (compounds of structure (I)) was “+ (+ indicates binding activity up to 50%)”.

In the case of `C=CC(=O)N1CCN(c2nc(OCCN3CC(F)(F)C3)nc3c(F)c(-c4c(O)cccc4F)c(Cl)cc23)CC1` (atropisomer, axis not shown) [Example I-125, (S)-1-(4-(6-chloro-2-(2-(3,3-difluoro-azetidin-1-yl)ethoxy)-8-fluoro-7-(2-fluoro-6-hydroxyphenyl)quinazolin-4-yl)piperazin-1-yl) prop-2-en-1-one], the Binding % (compounds of structure (I)) is reported as “+++ (+++ indicates binding activity greater than 90%)”.

`C=CC(=O)N1CCN(c2nc(CP(C)(C)=O)nc3c(F)c(-c4c(O)cccc4F)c(Cl)cc23)CC1` [Example I-209, 1-(4-(6-chloro-2-((dimethyl-phosphoryl)methyl)-8-fluoro-7-(2-fluoro-6-hydroxyphenyl)quinazolin-4-yl)piperazin-1-yl) prop-2-en-1-one] was tested, and the Binding % (compounds of structure (I)) was “++ (++ indicates binding activity from 50 to 90%)”.

`C=CC(=O)N1CC2(CCN(c3ncnc4c(F)c(-c5c(O)cccc5F)c(Cl)cc34)C2)C1` [II-4, 1-(6-(6-chloro-8-fluoro-7-(2-fluoro-6-hydroxyphenyl)quinazolin-4-yl)-2,6-diazaspiro[3.4]octan-2-yl)prop-2-en-1-one] was tested, and the Binding % (compounds of structure (II)) was “+ (+ indicates binding activity up to 50%)”.
